This note sets out measurements from ChEMBL document CHEMBL3638630 (2014).

Assay [1] concerns the target Matrix metalloproteinase-9 (Homo sapiens, UniProt P14780). The assay can be described thus: (§1) Inhibition Assay: The inhibition tests and the evaluation of the inhibition constants (Ki) on the various MMPs were carried out as described by Devel et al. (Devel et al. 2006 J. Biol. Chem. (7)).
Assay [2] addresses Macrophage metalloelastase (Homo sapiens, UniProt P39900). The assay is described as §1.
The target in a further assay is Stromelysin-1 (Homo sapiens, UniProt P08254). Described as §1.
Stromelysin-1, sequence (P08254 whole entry): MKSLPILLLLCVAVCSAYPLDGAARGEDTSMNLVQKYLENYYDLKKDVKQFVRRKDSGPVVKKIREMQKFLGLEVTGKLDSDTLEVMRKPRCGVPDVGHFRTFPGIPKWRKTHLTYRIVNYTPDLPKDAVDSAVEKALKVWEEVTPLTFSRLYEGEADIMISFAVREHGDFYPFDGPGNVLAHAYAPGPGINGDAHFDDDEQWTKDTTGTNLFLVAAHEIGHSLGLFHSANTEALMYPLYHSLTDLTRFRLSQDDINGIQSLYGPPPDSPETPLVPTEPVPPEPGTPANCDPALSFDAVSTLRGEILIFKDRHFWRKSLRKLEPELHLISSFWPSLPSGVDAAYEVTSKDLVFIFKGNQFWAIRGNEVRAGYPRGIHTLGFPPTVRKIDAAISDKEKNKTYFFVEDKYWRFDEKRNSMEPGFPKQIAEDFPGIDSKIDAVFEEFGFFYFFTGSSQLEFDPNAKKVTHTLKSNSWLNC
For another assay, the target named is Collagenase 3 (Homo sapiens, UniProt P45452). Described as §1.
Assay [3] addresses Matrix metalloproteinase-14 (Homo sapiens, UniProt P50281). The assay is described as §1.
Assay [4] concerns the target 72 kDa type IV collagenase (Homo sapiens, UniProt P08253). The assay is described as §1.
A further assay deals with Neutrophil collagenase (Homo sapiens, UniProt P22894). Described as §1.
Neutrophil collagenase, sequence (P22894 whole entry): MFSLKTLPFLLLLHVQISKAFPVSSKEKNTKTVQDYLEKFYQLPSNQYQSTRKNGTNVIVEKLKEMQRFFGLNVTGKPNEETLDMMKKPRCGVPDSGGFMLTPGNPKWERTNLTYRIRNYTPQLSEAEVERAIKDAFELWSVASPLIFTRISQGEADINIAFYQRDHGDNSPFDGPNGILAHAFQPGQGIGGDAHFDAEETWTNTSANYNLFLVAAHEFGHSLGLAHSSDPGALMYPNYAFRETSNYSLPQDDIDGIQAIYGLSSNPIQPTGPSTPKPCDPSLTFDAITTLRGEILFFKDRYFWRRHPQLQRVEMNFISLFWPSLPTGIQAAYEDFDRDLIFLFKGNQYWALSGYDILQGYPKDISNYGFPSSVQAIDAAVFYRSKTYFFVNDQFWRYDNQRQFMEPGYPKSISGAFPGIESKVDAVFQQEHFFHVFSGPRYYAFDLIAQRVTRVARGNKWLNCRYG
The target in another assay is Stromelysin-2 (Homo sapiens, UniProt P09238). Described as §1.
Stromelysin-2, sequence (P09238 whole entry): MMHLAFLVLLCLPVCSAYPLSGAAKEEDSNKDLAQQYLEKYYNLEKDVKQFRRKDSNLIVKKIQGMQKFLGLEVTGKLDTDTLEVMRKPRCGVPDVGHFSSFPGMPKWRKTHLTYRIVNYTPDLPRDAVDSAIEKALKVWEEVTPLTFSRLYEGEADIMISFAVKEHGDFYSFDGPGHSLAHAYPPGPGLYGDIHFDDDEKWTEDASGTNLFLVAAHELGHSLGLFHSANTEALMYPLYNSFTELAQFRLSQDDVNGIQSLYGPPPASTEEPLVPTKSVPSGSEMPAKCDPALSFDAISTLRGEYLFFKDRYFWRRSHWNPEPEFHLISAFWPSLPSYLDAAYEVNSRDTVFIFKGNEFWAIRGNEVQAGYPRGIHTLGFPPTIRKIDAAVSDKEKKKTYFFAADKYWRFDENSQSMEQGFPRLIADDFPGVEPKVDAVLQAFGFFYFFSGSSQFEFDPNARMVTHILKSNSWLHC

Macrophage metalloelastase, sequence (P39900 whole entry): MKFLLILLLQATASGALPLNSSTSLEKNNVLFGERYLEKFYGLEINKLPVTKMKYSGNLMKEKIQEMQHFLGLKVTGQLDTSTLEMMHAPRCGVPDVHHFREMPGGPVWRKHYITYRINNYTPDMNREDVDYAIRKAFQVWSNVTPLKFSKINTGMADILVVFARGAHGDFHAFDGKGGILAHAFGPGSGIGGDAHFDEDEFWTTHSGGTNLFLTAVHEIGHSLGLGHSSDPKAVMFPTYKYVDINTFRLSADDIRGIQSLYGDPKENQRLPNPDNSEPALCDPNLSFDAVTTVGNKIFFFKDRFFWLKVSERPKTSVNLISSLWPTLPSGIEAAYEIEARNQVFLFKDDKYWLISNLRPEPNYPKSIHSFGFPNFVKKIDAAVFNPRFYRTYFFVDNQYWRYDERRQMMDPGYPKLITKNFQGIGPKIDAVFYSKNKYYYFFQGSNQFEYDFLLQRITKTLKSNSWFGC
72 kDa type IV collagenase, sequence (P08253 whole entry): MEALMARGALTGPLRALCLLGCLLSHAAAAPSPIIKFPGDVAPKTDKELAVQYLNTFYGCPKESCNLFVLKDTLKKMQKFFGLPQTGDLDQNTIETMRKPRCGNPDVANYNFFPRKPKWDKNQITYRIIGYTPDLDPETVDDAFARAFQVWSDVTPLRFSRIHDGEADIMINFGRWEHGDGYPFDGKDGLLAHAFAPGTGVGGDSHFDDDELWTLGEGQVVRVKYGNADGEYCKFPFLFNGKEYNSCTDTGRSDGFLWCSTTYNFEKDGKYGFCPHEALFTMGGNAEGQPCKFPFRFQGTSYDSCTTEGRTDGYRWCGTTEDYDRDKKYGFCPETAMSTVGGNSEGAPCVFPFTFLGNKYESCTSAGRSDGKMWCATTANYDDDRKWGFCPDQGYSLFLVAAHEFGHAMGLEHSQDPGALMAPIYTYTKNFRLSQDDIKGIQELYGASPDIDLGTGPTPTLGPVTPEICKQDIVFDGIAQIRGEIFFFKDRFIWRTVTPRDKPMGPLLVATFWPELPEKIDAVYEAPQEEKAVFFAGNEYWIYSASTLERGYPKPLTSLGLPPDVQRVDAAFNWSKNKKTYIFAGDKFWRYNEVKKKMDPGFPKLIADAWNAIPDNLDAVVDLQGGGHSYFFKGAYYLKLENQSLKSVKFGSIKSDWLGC
Matrix metalloproteinase-9, sequence (P14780 whole entry): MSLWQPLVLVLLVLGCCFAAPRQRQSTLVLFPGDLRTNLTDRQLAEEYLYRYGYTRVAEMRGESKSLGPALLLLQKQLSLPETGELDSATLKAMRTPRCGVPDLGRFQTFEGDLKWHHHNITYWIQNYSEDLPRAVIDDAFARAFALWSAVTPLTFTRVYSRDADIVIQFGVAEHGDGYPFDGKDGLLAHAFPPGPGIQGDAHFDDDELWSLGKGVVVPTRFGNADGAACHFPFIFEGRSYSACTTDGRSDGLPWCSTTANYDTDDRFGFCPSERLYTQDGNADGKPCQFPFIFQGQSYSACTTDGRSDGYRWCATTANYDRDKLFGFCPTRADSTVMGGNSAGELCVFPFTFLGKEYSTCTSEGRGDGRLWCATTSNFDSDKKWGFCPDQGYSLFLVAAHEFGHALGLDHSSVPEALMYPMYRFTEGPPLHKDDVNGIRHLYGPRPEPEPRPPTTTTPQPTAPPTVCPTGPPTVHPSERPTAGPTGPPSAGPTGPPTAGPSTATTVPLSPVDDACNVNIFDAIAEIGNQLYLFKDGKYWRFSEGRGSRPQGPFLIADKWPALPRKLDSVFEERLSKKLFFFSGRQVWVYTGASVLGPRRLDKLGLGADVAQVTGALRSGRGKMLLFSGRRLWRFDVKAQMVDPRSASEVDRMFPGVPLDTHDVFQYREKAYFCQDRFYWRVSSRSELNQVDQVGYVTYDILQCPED

Broadly, the Ki is the dissociation constant of the complex between target and ligand, obtained from inhibition or displacement. A lower Ki goes with tighter binding. Consider `NC(=O)CC[C@H](NC(=O)CCc1ccc(-c2cc(-c3ccccc3)cs2)cc1)C(=O)N[C@@H](CCC(=O)O)C(N)=O`, for which the Ki in assay [1] is greater than 5 µM; in assay [2] it was 0.317 µM; at Stromelysin-1 it was greater than 10 µM; at Collagenase 3, greater than 1 µM; in assay [3], greater than 10 µM; in assay [4], greater than 5 µM. For the same molecule, the Ki on Neutrophil collagenase and on Stromelysin-2 was greater than 10 µM each time.
